Experimental data as given in patent US11179348B2, “Combination comprising pterostilbene for the treatment of cancer” (FUNDACIÓN UNIVERSIDAD CATÓLICA DE VALENCIA SAN VICENTE …, priority 2015, dated 2021).
Marks after values point to notes of the source that are not given here.

Assay: Hematology, clinical chemistry and urinary balance in tumor-bearing mice treated with Pter
Type: in vivo
Settings: Pter 30 mg/kg i.v.

With `COc1cc(/C=C/c2ccc(O)cc2)cc(OC)c1` [Pter, trans-3,5-dimethoxy-4′-hydroxystilbene] the “% CD3” value (A2058-bearing mice, day 35) was 1.2 ± 0.2%, the Alanine aminotransferase (A2058-bearing mice, day 35) was 7.0 ± 1.6 IU/L and the Albumin (A2058-bearing mice, day 35) was 2.9 ± 0.6 g/dL. It also gave an Alkaline phosphatase (A2058-bearing mice, day 35) of 140 ± 21 IU/L, an Aspartate aminotransferase (A2058-bearing mice, day 35) of 140 ± 27 IU/L and a B cells (A2058-bearing mice, day 35) of 63.4 ± 7.7. For the same molecule, the Basophils (A2058-bearing mice, day 35) was 0.0 ± 0.0 10^3/μL, the CD4 (A2058-bearing mice, day 35) was 0.9 ± 0.1 and the CD8 (A2058-bearing mice, day 35) was 0.4 ± 0.05. The Chloride (A2058-bearing mice, day 35) was 99 ± 10 mEq/L, the Creatinine (A2058-bearing mice, day 35) was 0.5 ± 0.1 mg/dL and the Direct bilirubin (A2058-bearing mice, day 35) was 0.1 ± 0.03 mg/dL. For the same molecule, the Eosinophils (A2058-bearing mice, day 35) was 0.05 ± 0.02 10^3/μL, the Erythrocytes (A2058-bearing mice, day 35) was 7.0 ± 0.2^† 10^6/μL and the GGT (A2058-bearing mice, day 35) was 2.0 ± 0.5 IU/L. The Glucose (A2058-bearing mice, day 35) was 157 ± 19 mg/dL, the Hematocrit (A2058-bearing mice, day 35) was 34.4 ± 3.0% and the Hemoglobin (A2058-bearing mice, day 35) was 12.1 ± 0.4 g/dL. For the same molecule, the “Isolated CD2^+ lymphocytes: Cell volume” value (A2058-bearing mice, day 35) was 164 ± 15 μm^3, the “Isolated CD2^+ lymphocytes: GSH” value (A2058-bearing mice, day 35) was 4.3 ± 0.5 nmol/10^6 cells and the “Isolated CD2^+ lymphocytes: Glucose utilization” value (A2058-bearing mice, day 35) was 1.24 ± 0.08 µmol/g/min. The “Isolated CD2^+ lymphocytes: Glutamine utilization” value (A2058-bearing mice, day 35) was 3.35 ± 0.32 µmol/g/min, the “Isolated hepatocytes: Cell volume” value (A2058-bearing mice, day 35) was 2.9 ± 0.2 μL/mg dry wt and the “Isolated hepatocytes: GSH” value (A2058-bearing mice, day 35) was 4760 ± 377 nmol/g of cells. The “Isolated hepatocytes: Glucose utilization” value (A2058-bearing mice, day 35) was 1.57 ± 0.12 µmol/g/min, the Lactate dehydrogenase (A2058-bearing mice, day 35) was 251 ± 38 IU/L and the Leukocytes (A2058-bearing mice, day 35) was 2.2 ± 0.4 10^3/μL. The Lymphocytes (A2058-bearing mice, day 35) was 1.3 ± 0.2 10^3/μL, the Monocytes (A2058-bearing mice, day 35) was 0.04 ± 0.02* 10^3/μL and the NK (A2058-bearing mice, day 35) was 4.1 ± 1.5. The Neutrophils (A2058-bearing mice, day 35) was 0.8 ± 0.2 10^3/μL, the Plasma osmolality (A2058-bearing mice, day 35) was 278 ± 15 mOsm/kg and the Platelets (A2058-bearing mice, day 35) was 393 ± 36 10^3/μL. It also gave a Potassium (A2058-bearing mice, day 35) of 7.7 ± 1.6 mEq/L, a Sodium (A2058-bearing mice, day 35) of 152 ± 20 mEq/L and a Total bilirubin (A2058-bearing mice, day 35) of 0.5 ± 0.1 mg/dL. It also gave a Total protein (A2058-bearing mice, day 35) of 3.9 ± 0.5 g/dL, a Urea (A2058-bearing mice, day 35) of 50.4 ± 3.1 mg/dL and a Uric acid (A2058-bearing mice, day 35) of 1.8 ± 0.4 mg/dL. The “Urinary balance: Bilirubin” value (A2058-bearing mice, day 35) was “Negative”, the “Urinary balance: Erythrocytes” value (A2058-bearing mice, day 35) was “Negative” and the “Urinary balance: GFR” value (A2058-bearing mice, day 35) was 167 ± 30 µL/min. The “Urinary balance: Glucose” value (A2058-bearing mice, day 35) was “Normal”, the “Urinary balance: Ketones” value (A2058-bearing mice, day 35) was “Negative” and the “Urinary balance: Leukocytes” value (A2058-bearing mice, day 35) was “Negative”. For the same molecule, the “Urinary balance: Nitrite” value (A2058-bearing mice, day 35) was “Negative”, the “Urinary balance: Protein” value (A2058-bearing mice, day 35) was 0.2 g/L and the “Urinary balance: Urobilinogen” value (A2058-bearing mice, day 35) was “Normal”. The “Urinary balance: pH” value (A2058-bearing mice, day 35) was 7.7 ± 0.5, the “% CD3” value (AsPC-1-bearing mice, day 28) was 0.9 ± 0.3% and the Alanine aminotransferase (AsPC-1-bearing mice, day 28) was 13.2 ± 3.5 IU/L. The Albumin (AsPC-1-bearing mice, day 28) was 3.0 ± 0.6 g/dL, the Alkaline phosphatase (AsPC-1-bearing mice, day 28) was 147 ± 18 IU/L and the Aspartate aminotransferase (AsPC-1-bearing mice, day 28) was 166 ± 27 IU/L. For the same molecule, the B cells (AsPC-1-bearing mice, day 28) was 71.4 ± 11.4, the Basophils (AsPC-1-bearing mice, day 28) was 0.0 ± 0.0 10^3/μL and the CD4 (AsPC-1-bearing mice, day 28) was 0.8 ± 0.1. The CD8 (AsPC-1-bearing mice, day 28) was 0.2 ± 0.1, the Chloride (AsPC-1-bearing mice, day 28) was 106 ± 9 mEq/L and the Creatinine (AsPC-1-bearing mice, day 28) was 0.5 ± 0.1 mg/dL. For the same molecule, the Direct bilirubin (AsPC-1-bearing mice, day 28) was 0.1 ± 0.03 mg/dL, the Eosinophils (AsPC-1-bearing mice, day 28) was 0.04 ± 0.02 10^3/μL and the Erythrocytes (AsPC-1-bearing mice, day 28) was 6.2 ± 0.1^† 10^6/μL. The GGT (AsPC-1-bearing mice, day 28) was 2.3 ± 0.4 IU/L, the Glucose (AsPC-1-bearing mice, day 28) was 136 ± 20 mg/dL and the Hematocrit (AsPC-1-bearing mice, day 28) was 30.1 ± 1.5 %. For the same molecule, the Hemoglobin (AsPC-1-bearing mice, day 28) was 12.0 ± 0.3 g/dL, the “Isolated CD2^+ lymphocytes: Cell volume” value (AsPC-1-bearing mice, day 28) was 177 ± 14 μm^3 and the “Isolated CD2^+ lymphocytes: GSH” value (AsPC-1-bearing mice, day 28) was 4.2 ± 0.6 nmol/10^6 cells. For the same molecule, the “Isolated CD2^+ lymphocytes: Glucose utilization” value (AsPC-1-bearing mice, day 28) was 1.23 ± 0.15 µmol/g/min, the “Isolated CD2^+ lymphocytes: Glutamine utilization” value (AsPC-1-bearing mice, day 28) was 3.40 ± 0.12 µmol/g/min and the “Isolated hepatocytes: Cell volume” value (AsPC-1-bearing mice, day 28) was 3.0 ± 0.3 μL/mg dry wt. For the same molecule, the “Isolated hepatocytes: GSH” value (AsPC-1-bearing mice, day 28) was 4420 ± 444 nmol/g of cells, the “Isolated hepatocytes: Glucose utilization” value (AsPC-1-bearing mice, day 28) was 1.50 ± 0.13 µmol/g/min and the Lactate dehydrogenase (AsPC-1-bearing mice, day 28) was 288 ± 30 IU/L. For the same molecule, the Leukocytes (AsPC-1-bearing mice, day 28) was 1.9 ± 0.3* 10^3/μL, the Lymphocytes (AsPC-1-bearing mice, day 28) was 1.1 ± 0.2 10^3/μL and the Monocytes (AsPC-1-bearing mice, day 28) was 0.05 ± 0.02 10^3/μL. The NK (AsPC-1-bearing mice, day 28) was 2.7 ± 1.1, the Neutrophils (AsPC-1-bearing mice, day 28) was 0.6 ± 0.2^† 10^3/μL and the Plasma osmolality (AsPC-1-bearing mice, day 28) was 278 ± 16 mOsm/kg. For the same molecule, the Platelets (AsPC-1-bearing mice, day 28) was 312 ± 55^† 10^3/μL, the Potassium (AsPC-1-bearing mice, day 28) was 8.9 ± 1.7 mEq/L and the Sodium (AsPC-1-bearing mice, day 28) was 149 ± 14 mEq/L. It also gave a Total bilirubin (AsPC-1-bearing mice, day 28) of 0.5 ± 0.1 mg/dL, a Total protein (AsPC-1-bearing mice, day 28) of 3.5 ± 0.5 g/dL and a Urea (AsPC-1-bearing mice, day 28) of 52.4 ± 5.7 mg/dL. For the same molecule, the Uric acid (AsPC-1-bearing mice, day 28) was 1.6 ± 0.3 mg/dL, the “Urinary balance: Bilirubin” value (AsPC-1-bearing mice, day 28) was “Negative” and the “Urinary balance: Erythrocytes” value (AsPC-1-bearing mice, day 28) was “Negative”. For the same molecule, the “Urinary balance: GFR” value (AsPC-1-bearing mice, day 28) was 186 ± 17 µL/min, the “Urinary balance: Glucose” value (AsPC-1-bearing mice, day 28) was “Normal” and the “Urinary balance: Ketones” value (AsPC-1-bearing mice, day 28) was “Negative”. The “Urinary balance: Leukocytes” value (AsPC-1-bearing mice, day 28) was “Negative”, the “Urinary balance: Nitrite” value (AsPC-1-bearing mice, day 28) was “Negative” and the “Urinary balance: Protein” value (AsPC-1-bearing mice, day 28) was 0.3 g/L. The “Urinary balance: Urobilinogen” value (AsPC-1-bearing mice, day 28) was “Normal” and the “Urinary balance: pH” value (AsPC-1-bearing mice, day 28) was 7.7 ± 0.4.
